Data on 18 compounds can be found in ChEMBL document CHEMBL4130433, “Acridone-pyrimidine hybrids- design, synthesis, cytotoxicity studies in resistant and sensitive cancer cells and molecular docking studies” (Eur J Med Chem, 2017).

Each structure is given as a SMILES string. Where only a bound is given, the exact number is not on record here.

For data set [1], the system named is K562. Put plainly: Cytotoxicity against human K562 cells by MTT assay. In kind it is functional, cell-based.
Data set [2] has as its target RAC-alpha serine/threonine-protein kinase (Homo sapiens, UniProt P31749). The experiment in a line: Inhibition of PH domain lacking AKT1 (unknown origin) using Tamara-labeled GRPRTSSFAEG peptide as substrate after 90 mins by fluorescence polarization IMAP assay.
The test system of data set [3] is MCF7. Put plainly: Antiproliferative activity against human MCF7 cells after 72 hrs by MTT assay. In kind it is functional, cell-based. Conditions: MCF7, 72 h.
Data set [4] relates to A549. Put plainly: cells. The conditions noted are these: Homo sapiens, A549, 72 h.
Description: Antiproliferative activity against human A549 cells after 72 hrs by MTT assay
Data set [5] deals with MDA-MB-231. The experiment in a line: Antiproliferative activity against human MDA-MB-231 cells after 72 hrs by MTT assay. The format is functional, cell-based. Conditions: MDA-MB-231, 72 h.
Data set [6] concerns HeLa. Put plainly: Antiproliferative activity against human HeLa cells after 72 hrs by MTT assay. The format is functional, cell-based.
The nature of data set [7]: Cytotoxicity against African green monkey Vero cells after 72 hrs by MTT assay. The format is cell-based. Conditions: chlorocebus sabaeus.
Data set [8] concerns MDA-MB-231. The experiment in a line: Effect on total AKT protein expression in human MDA-MB-231 cells at antiproliferative IC50 after 48 hrs by Western blot method. In kind it is cell-based. The conditions noted are these: mda-mb-231, 48 h.
Data set [9] has as its system MCF7. Put plainly: Cytotoxicity against human MCF7 cells by MTT assay. In kind it is functional, cell-based.
The subject of data set [10] is 2008. Put plainly: Antiproliferative activity against resistant human 2008 cells clone 4 harboring MRP1 after 72 hrs by MTT assay. In kind it is functional, cell-based. Conditions: Homo sapiens, 2008, 72 h.
A short description of data set [11]: Antiproliferative activity against human MCF7/MX cells after 72 hrs by MTT assay. In kind it is functional, cell-based.
Data set [12] in a line: Antiproliferative activity against human MCF7/DX cells after 72 hrs by MTT assay. The format is functional, cell-based.
Data set [13] has as its system SW1573. Put plainly: Antiproliferative activity against resistant human SW1573 2R 160 cells harboring P-gp after 72 hrs by MTT assay. In kind it is functional, cell-based. The conditions noted are these: SW1573, 72 h.
Data set [14] has as its system SW1573. Put plainly: Antiproliferative activity against human SW1573 cells after 72 hrs by MTT assay. In kind it is functional, cell-based. Conditions: SW1573, 72 h.
Data set [15] relates to SW1573. Put plainly: Antiproliferative activity against resistant human SW1573 2R 120 cells harboring MRP1 after 72 hrs by MTT assay. In kind it is functional, cell-based. Conditions: SW1573, 72 h.
For data set [16], the system named is 2008. The experiment in a line: Antiproliferative activity against resistant human 2008 cells clone 6 harboring MRP1 after 72 hrs by MTT assay. The format is functional, cell-based. The conditions noted are these: Homo sapiens, 2008, 72 h.
Data set [17] relates to 2008. The experiment in a line: Antiproliferative activity against human 2008 cells after 72 hrs by MTT assay. In kind it is functional, cell-based. Conditions: Homo sapiens, 2008, 72 h.

Sequence of RAC-alpha serine/threonine-protein kinase (P31749 whole entry, the tested form may be a part): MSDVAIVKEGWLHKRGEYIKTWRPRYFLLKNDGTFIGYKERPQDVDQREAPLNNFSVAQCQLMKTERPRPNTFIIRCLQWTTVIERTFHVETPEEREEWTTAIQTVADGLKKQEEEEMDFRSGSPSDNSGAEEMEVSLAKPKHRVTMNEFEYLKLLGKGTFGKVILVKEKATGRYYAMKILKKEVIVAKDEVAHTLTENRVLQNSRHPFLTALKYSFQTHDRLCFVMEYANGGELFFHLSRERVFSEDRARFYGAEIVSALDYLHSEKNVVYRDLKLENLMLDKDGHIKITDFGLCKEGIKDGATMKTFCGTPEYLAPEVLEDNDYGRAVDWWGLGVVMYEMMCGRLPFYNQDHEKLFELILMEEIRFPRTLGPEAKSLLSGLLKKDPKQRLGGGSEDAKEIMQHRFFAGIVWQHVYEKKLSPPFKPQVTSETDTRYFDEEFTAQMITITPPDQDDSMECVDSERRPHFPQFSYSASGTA

In data set [1], `Cc1cccc2c(=O)c3c(NCc4ccccc4)ccc(C(=O)NCCN(C)C)c3[nH]c12` gave a 50% inhibitory concentration (IC50) of 0.46 µM.
With `CCOC(=O)c1c(C)nc(NNC(=O)c2cccc3c(=O)c4ccccc4[nH]c23)nc1-c1ccc(F)cc1`, the IC50 in data set [2] is 0.176 µM; in data set [3], greater than 100 µM; in data set [4], greater than 100 µM; in data set [5], greater than 100 µM; in data set [6], 47.1 µM. This compound also came in with a cytotoxic concentration (CC50) at 72 h in [7] of 58.2 µM.
With `CCOC(=O)c1c(C)nc(NNC(=O)c2cccc3c(=O)c4ccccc4[nH]c23)nc1-c1ccccc1F`, the IC50 is 0.0082 µM in data set [2]; 7.3 µM in data set [3]; 3.12 µM in data set [4]; 6.28 µM in data set [5]; 52.6 µM in data set [6]. In addition, the Activity entry in [8] was “Non-Toxic”. It took 61.3 µM to reach half-maximal cytotoxicity in data set [7] (CC50 at 72 h).
Take `CCOC(=O)c1c(C)nc(NNC(=O)c2cccc3c(=O)c4ccccc4[nH]c23)nc1-c1ccc(C)cc1`: the IC50 in data set [2] came out at 0.98 µM; in data set [3], 11.4 µM; in data set [4] it was 9.74 µM; in [5], 5.6 µM; in [6] it was 48.5 µM. Moreover, half-maximal cytotoxicity in data set [7] (CC50 at 72 h) was put at 72.3 µM.
Consider `COC(=O)c1c(C)nc(NNC(=O)c2cccc3c(=O)c4ccccc4[nH]c23)nc1-c1ccc(OC)cc1`, for which the IC50 worked out at 0.64 µM in data set [2]; 52.1 µM in [3]; 44.8 µM in data set [4]; 74.5 µM in data set [5]; 37.4 µM in data set [6]. The same compound came in with a cytotoxic concentration (CC50) at 72 h in data set [7] of 86.2 µM.
Take `CCOC(=O)c1c(C)nc(NNC(=O)c2cccc3c(=O)c4ccccc4[nH]c23)nc1-c1cccc(OC)c1`: the concentration for half-maximal inhibition (IC50) in data set [2] is 0.251 µM; in [3], greater than 100 µM; in data set [4] it was greater than 100 µM; in data set [5] it was greater than 100 µM; in data set [6] it was greater than 100 µM. Half-maximal cytotoxicity in [7] (CC50 at 72 h) was put at 64.1 µM.
Take `CCOC(=O)c1c(C)nc(NNC(=O)c2cccc3c(=O)c4ccccc4[nH]c23)nc1-c1ccccc1`: the half-inhibitory concentration (IC50) was 0.0047 µM in [2]; 15.6 µM in data set [3]; 8.49 µM in data set [4]; 19.6 µM in data set [5]; 45.8 µM in data set [6]. In data set [8], the Activity entry is recorded as “Non-Toxic”. In data set [7], this compound gave a CC50 at 72 h of 92.8 µM.
Consider `COC(=O)c1c(C)nc(NNC(=O)c2cccc3c(=O)c4ccccc4[nH]c23)nc1-c1ccccc1F`, for which the IC50 in data set [2] amounted to 0.432 µM; in data set [3], 25.7 µM; in data set [4], 20.6 µM; in [5] it was 41.6 µM; in data set [6] it was 67.3 µM. Moreover, the CC50 at 72 h in [7] came out at 76.1 µM.
In data set [9], `COc1ccc(Cn2cc(Cn3c4ccccc4c(=O)c4cc(OC)ccc43)nn2)cc1` showed an IC50 of 11 µM.
Regarding `COC(=O)c1c(C)nc(NNC(=O)c2cccc3c(=O)c4ccccc4[nH]c23)nc1-c1ccc(F)cc1`, the half-inhibitory concentration (IC50) in data set [10] was 24 µM; in data set [2], 0.313 µM; in data set [3], 33 µM; in [4], 36.5 µM; in data set [5] it was 56.2 µM; in [11], 30 µM. Further, the IC50 in data set [6] was 44.5 µM; in data set [12], 45 µM; in data set [13] it was 62 µM; in data set [14], 75 µM; in data set [15], greater than 100 µM; in data set [16], 27 µM. Besides, in [17], the IC50 came to 23 µM. In [7], this compound had a half-maximal cytotoxic concentration (CC50) at 72 h of 78.2 µM.
On to `CCOC(=O)c1c(C)nc(NNC(=O)c2cccc3c(=O)c4ccccc4[nH]c23)nc1-c1ccc(OC)cc1`, for which the half-maximal inhibitory concentration (IC50) is 0.00172 µM in [2]; 10.5 µM in data set [3]; 3.26 µM in [4]; 7.12 µM in data set [5]; 74.5 µM in data set [6]. The Activity entry in data set [8] was “Non-Toxic”. The compound further displayed a CC50 at 72 h in data set [7] of 82.3 µM.
Regarding `COC(=O)c1c(C)nc(NNC(=O)c2cccc3c(=O)c4ccccc4[nH]c23)nc1-c1cccc(OC)c1`, the half-inhibitory concentration (IC50) in data set [10] was 74 µM; in data set [2] it was 0.482 µM; in data set [3], 32 µM; in data set [4] it was 27.2 µM; in [5], 58.3 µM; in [11], 30 µM. Further, the IC50 is 72.6 µM in data set [6]; 78 µM in data set [12]; 10 µM in data set [13]; 5 µM in data set [14]; greater than 100 µM in data set [15]; 72 µM in data set [16]. The midpoint of inhibition in [17], the IC50, lay at 34 µM. This compound displayed a CC50 at 72 h in data set [7] of 95.1 µM.
Consider `CCOC(=O)c1c(C)nc(NNC(=O)c2cccc3c(=O)c4ccccc4[nH]c23)nc1-c1ccc(OC)c(OC)c1`, for which the IC50 is 25 µM in [10]; 0.115 µM in data set [2]; 26 µM in data set [3]; 41.7 µM in [4]; 47.3 µM in data set [5]; 38 µM in data set [11]. Moreover, the IC50 in data set [6] was 57.5 µM; in data set [12], 30 µM; in data set [13], 62 µM; in data set [14], 45 µM; in data set [15], 38 µM; in [16] it was 19 µM. In addition, the concentration for half-maximal inhibition (IC50) in data set [17] was 15 µM. Further, half-maximal cytotoxicity in data set [7] (CC50 at 72 h) was put at 84.3 µM.
In the case of `COC(=O)c1c(C)nc(NNC(=O)c2cccc3c(=O)c4ccccc4[nH]c23)nc1-c1ccccc1`, the IC50 in data set [2] came out at 0.056 µM; in [3], 36.2 µM; in data set [4], 20.4 µM; in data set [5] it was 47.4 µM; in [6], 56.7 µM. In data set [7], this compound returned a CC50 at 72 h of 80 µM.
In the case of `CCOC(=O)c1c(C)nc(NNC(=O)c2cccc3c(=O)c4ccccc4[nH]c23)nc1CC(C)C`, the half-maximal inhibitory concentration (IC50) in [2] worked out at 0.012 µM; in data set [3], 4.32 µM; in [4], 3.9 µM; in data set [5], 8.61 µM; in data set [6], 39.1 µM. The Activity result in data set [8] is given as “Non-Toxic”. This compound registered a CC50 at 72 h in [7] of 78.2 µM.
For `COC(=O)c1c(C)nc(NNC(=O)c2cccc3c(=O)c4ccccc4[nH]c23)nc1-c1ccc(C)cc1`, the IC50 turned out to be 0.738 µM in data set [2]; 45.2 µM in data set [3]; 40.5 µM in data set [4]; 23.7 µM in [5]; 76.4 µM in [6]. In data set [7], this compound came in with a 50% cytotoxic concentration (CC50) at 72 h of 64.2 µM.
Consider `COc1cccc2c1C(=O)c1c(O)c3c(c(O)c1C2=O)C[C@@](O)(C(=O)CO)C[C@@H]3O[C@H]1C[C@H](N)[C@H](O)[C@H](C)O1` [DOXORUBICIN], for which 10.2 µM corresponded to half-maximal inhibition in data set [4] (IC50). The Activity result in data set [8] is reported as “Non-Toxic”.
The compound `C#Cc1cccc(Nc2ncnc3cc(OCCOC)c(OCCOC)cc23)c1` [ERLOTINIB] gave an IC50 in data set [4] of 21.3 µM.
